Experimental data: PubChem BioAssay (NCI)
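Cells were grown in 96-well plates and exposed to each compound for 48 hours at five concentrations; endpoints were interpolated linearly between bracketing concentrations, or set to the highest concentration if not reached. GI50: concentration for 50% inhibition of growth. TGI denotes the concentration required for complete inhibition of growth.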

What was measured:
Experiment in all cases: NCI tumour cell line growth inhibition, 48 h
SNB-75 CNS = system: SNB-75 CNS
NCI-H460 lung = system: NCI-H460 lung
MCF7 breast = system: MCF7 breast
U251 CNS = system: U251 CNS
UACC-257 melanoma = system: UACC-257 melanoma
PC-3 prostate = system: PC-3 prostate
KM12 colon = system: KM12 colon
SW-620 colon = system: SW-620 colon
HL-60(TB) leukemia = system: HL-60(TB) leukemia
HCC-2998 colon = system: HCC-2998 colon
A498 renal = system: A498 renal
SF-539 CNS = system: SF-539 CNS
A549 NSCLC = system: A549 NSCLC
TK-10 renal = system: TK-10 renal
T-47D breast = system: T-47D breast
MDA-MB-231 breast = system: MDA-MB-231 breast
SK-MEL-2 melanoma = system: SK-MEL-2 melanoma
OVCAR-8 ovarian = system: OVCAR-8 ovarian
UO-31 renal = system: UO-31 renal
K-562 leukemia = system: K-562 leukemia
LOX IMVI melanoma = system: LOX IMVI melanoma
SK-MEL-28 melanoma = system: SK-MEL-28 melanoma
UACC-62 melanoma = system: UACC-62 melanoma
BT-549 breast = system: BT-549 breast
IGROV1 ovarian = system: IGROV1 ovarian
MALME-3M melanoma = system: MALME-3M melanoma
CCRF-CEM leukemia = system: CCRF-CEM leukemia
NCI-H226 lung = system: NCI-H226 lung
HCT-15 colon = system: HCT-15 colon
NCI-H522 lung = system: NCI-H522 lung
OVCAR-3 ovarian = system: OVCAR-3 ovarian
ACHN renal = system: ACHN renal
MDA-MB-435 = system: MDA-MB-435
SN12C renal = system: SN12C renal
HS 578T breast = system: HS 578T breast
HOP-62 NSCLC = system: HOP-62 NSCLC
SK-OV-3 ovarian = system: SK-OV-3 ovarian
SF-268 CNS = system: SF-268 CNS
NCI-H23 lung = system: NCI-H23 lung
SR leukemia = system: SR leukemia
RPMI-8226 leukemia = system: RPMI-8226 leukemia
DU-145 prostate = system: DU-145 prostate
MOLT-4 leukemia = system: MOLT-4 leukemia
HT29 colon = system: HT29 colon
786-0 renal = system: 786-0 renal
OVCAR-5 ovarian = system: OVCAR-5 ovarian
SK-MEL-5 melanoma = system: SK-MEL-5 melanoma
EKVX NSCLC = system: EKVX NSCLC
HOP-92 NSCLC = system: HOP-92 NSCLC
HCT-116 colon = system: HCT-116 colon
SNB-19 CNS = system: SNB-19 CNS
RXF 393 renal = system: RXF 393 renal
M14 melanoma = system: M14 melanoma
MDA-MB-468 breast = system: MDA-MB-468 breast
COLO 205 colon = system: COLO 205 colon
SF-295 CNS = system: SF-295 CNS

Compound: O=C1C=CC(=CC=C2N(Cc3ccc4ccccc4c3)c3ccccc3N2Cc2ccc3ccccc3c2)C=C1
- GI50 (SNB-75 CNS): 1.18 µM
- TGI (SNB-75 CNS): 3.18 µM
- GI50 (NCI-H460 lung): 0.654 µM
- TGI (NCI-H460 lung): 1.96 µM
- GI50 (MCF7 breast): 1.19 µM
- TGI (MCF7 breast): 2.54 µM
- GI50 (U251 CNS): 0.52 µM
- TGI (U251 CNS): 1.78 µM
- GI50 (UACC-257 melanoma): 1.68 µM
- TGI (UACC-257 melanoma): 3.61 µM
- GI50 (PC-3 prostate): 0.956 µM
- TGI (PC-3 prostate): 3.1 µM
- GI50 (KM12 colon): 1.52 µM
- TGI (KM12 colon): 3.75 µM
- GI50 (SW-620 colon): 1.26 µM
- TGI (SW-620 colon): 2.66 µM
- GI50 (HL-60(TB) leukemia): 0.385 µM
- TGI (HL-60(TB) leukemia): 1.98 µM
- GI50 (HCC-2998 colon): 1.5 µM
- TGI (HCC-2998 colon): 3.01 µM
- GI50 (A498 renal): 2.89 µM
- TGI (A498 renal): > 26.9 µM
- GI50 (SF-539 CNS): 1.73 µM
- TGI (SF-539 CNS): 4.07 µM
- GI50 (A549 NSCLC): 1.53 µM
- TGI (A549 NSCLC): > 100 µM
- GI50 (TK-10 renal): 2.06 µM
- TGI (TK-10 renal): 5.27 µM
- GI50 (T-47D breast): 1.33 µM
- TGI (T-47D breast): 4.75 µM
- GI50 (MDA-MB-231 breast): 1.4 µM
- TGI (MDA-MB-231 breast): 2.76 µM
- GI50 (SK-MEL-2 melanoma): 1.58 µM
- TGI (SK-MEL-2 melanoma): 3.01 µM
- GI50 (OVCAR-8 ovarian): 0.971 µM
- TGI (OVCAR-8 ovarian): 2.35 µM
- GI50 (UO-31 renal): > 20.7 µM
- TGI (UO-31 renal): > 100 µM
- GI50 (K-562 leukemia): 0.514 µM
- GI50 (LOX IMVI melanoma): 0.887 µM
- TGI (LOX IMVI melanoma): 2.23 µM
- GI50 (SK-MEL-28 melanoma): 1.29 µM
- TGI (SK-MEL-28 melanoma): 2.84 µM
- GI50 (UACC-62 melanoma): 1.4 µM
- TGI (UACC-62 melanoma): 2.82 µM
- GI50 (BT-549 breast): 1.26 µM
- TGI (BT-549 breast): 3.42 µM
- GI50 (IGROV1 ovarian): 1.23 µM
- TGI (IGROV1 ovarian): 2.57 µM
- GI50 (MALME-3M melanoma): 1.41 µM
- TGI (MALME-3M melanoma): 3.2 µM
- GI50 (CCRF-CEM leukemia): 1.46 µM
- TGI (CCRF-CEM leukemia): 6.22 µM
- GI50 (NCI-H226 lung): 1.39 µM
- TGI (NCI-H226 lung): 2.98 µM
- GI50 (HCT-15 colon): 3.74 µM
- TGI (HCT-15 colon): > 100 µM
- GI50 (NCI-H522 lung): 1.48 µM
- TGI (NCI-H522 lung): 3.03 µM
- GI50 (OVCAR-3 ovarian): 0.904 µM
- TGI (OVCAR-3 ovarian): 2.31 µM
- GI50 (ACHN renal): 3.59 µM
- TGI (ACHN renal): > 100 µM
- GI50 (MDA-MB-435): 1.36 µM
- TGI (MDA-MB-435): 2.69 µM
- GI50 (SN12C renal): 1.51 µM
- TGI (SN12C renal): 4.68 µM
- GI50 (HS 578T breast): 1.47 µM
- TGI (HS 578T breast): 4.08 µM
- GI50 (HOP-62 NSCLC): 2.21 µM
- GI50 (SK-OV-3 ovarian): 1.72 µM
- TGI (SK-OV-3 ovarian): 5.26 µM
- GI50 (SF-268 CNS): 2.78 µM
- TGI (SF-268 CNS): 8.81 µM
- GI50 (NCI-H23 lung): 1.25 µM
- TGI (NCI-H23 lung): 2.7 µM
- GI50 (SR leukemia): 0.902 µM
- TGI (SR leukemia): 3.62 µM
- GI50 (RPMI-8226 leukemia): 0.428 µM
- TGI (RPMI-8226 leukemia): 2.18 µM
- GI50 (DU-145 prostate): 2.67 µM
- TGI (DU-145 prostate): > 100 µM
- GI50 (MOLT-4 leukemia): 1.48 µM
- TGI (MOLT-4 leukemia): 4.32 µM
- GI50 (HT29 colon): 1.88 µM
- TGI (HT29 colon): 5.6 µM
- GI50 (786-0 renal): 1.58 µM
- TGI (786-0 renal): 3.04 µM
- GI50 (OVCAR-5 ovarian): 1.72 µM
- TGI (OVCAR-5 ovarian): 4.41 µM
- GI50 (SK-MEL-5 melanoma): 0.697 µM
- TGI (SK-MEL-5 melanoma): 1.69 µM
- GI50 (EKVX NSCLC): 1.26 µM
- TGI (EKVX NSCLC): 3.94 µM
- GI50 (HOP-92 NSCLC): 0.883 µM
- TGI (HOP-92 NSCLC): 2.5 µM
- GI50 (HCT-116 colon): 0.971 µM
- TGI (HCT-116 colon): 3.16 µM
- GI50 (SNB-19 CNS): 0.92 µM
- TGI (SNB-19 CNS): 2.34 µM
- GI50 (RXF 393 renal): 1.33 µM
- TGI (RXF 393 renal): 2.87 µM
- GI50 (M14 melanoma): 0.999 µM
- TGI (M14 melanoma): 2.52 µM
- GI50 (MDA-MB-468 breast): 0.399 µM
- TGI (MDA-MB-468 breast): 1.49 µM
- GI50 (COLO 205 colon): 1.29 µM
- TGI (COLO 205 colon): 2.74 µM
- GI50 (SF-295 CNS): 1.29 µM
- TGI (SF-295 CNS): 2.87 µM
